Biological target: T1, Human TREM2 (Homo sapiens, UniProt Q9NZC2)
T1 construct: expressed in transfected cells
Assay: Human TREM2 activity: cellular phosphorylation of Syk (AlphaLISA SureFire Ultra p-SYK) in HEK293/DAP12+TREM2 stable cell line
Assay type: cell-based
Conditions: for Emax: HEK293, maximal response relative to reference agonist example 1B (remaining examples), read-out: Emax; for EC50: phospho-Syk AlphaLISA signal, HEK293/DAP12+TREM2 cells, concentration giving 50% of maximal response, read-out: EC50
Procedure, shortened: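 HEK293 cells stably co-expressing human TREM2 and DAP12 were seeded at 10,000 cells/well and used 20–24 h later. Compounds were tested at 8 concentrations (top 100 μM, 1:6 steps, 0.5% DMSO) for 30 min at 37 °C. Syk phosphorylation at Tyr525/526 was read in lysates by AlphaLISA SureFire Ultra.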

T1 sequence (Q9NZC2 19-230): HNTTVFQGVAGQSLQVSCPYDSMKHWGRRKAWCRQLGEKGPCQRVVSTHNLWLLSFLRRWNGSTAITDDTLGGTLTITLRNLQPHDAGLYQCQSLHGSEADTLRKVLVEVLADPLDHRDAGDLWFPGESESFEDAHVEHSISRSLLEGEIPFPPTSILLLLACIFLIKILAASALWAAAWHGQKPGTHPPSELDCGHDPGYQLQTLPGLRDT
T1 sequence (O43914 22-113 partner): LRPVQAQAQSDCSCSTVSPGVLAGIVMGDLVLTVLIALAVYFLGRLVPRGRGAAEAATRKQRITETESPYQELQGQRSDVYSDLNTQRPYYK

Compound | Emax | EC50
Cc1nc2c(-c3ccc(Cl)cc3F)nc(N3CC[C@@H](Oc4cnn(C)c4)C3)nc2c(=O)n1C [Example 64, (R)-8-(4-chloro-2-fluorophenyl)-2,3-dimethyl-6-(3-((1-methyl-1H-pyrazol-4-yl)oxy)pyrrolidin-1-yl)pyrimido[5,4-d]pyrimidin-4 (3H)-one] | < 75% | 10 to 100 nM
COCCn1cc(C2CN(c3nc(-c4ccc(Cl)cc4F)c4nc(C)n(C)c(=O)c4n3)CCO2)cn1 (centres unmarked) [Example 69, 8-(4-chloro-2-fluorophenyl)-6-(2-(1-(2-methoxyethyl)-1H-pyrazol-4-yl)morpholino)-2,3-dimethylpyrimido[5,4-d]pyrimidin-4 (3H)-one] | < 75% | 10 to 100 nM
Cc1nc2c(-c3ccc(F)cc3Cl)nc(N3CCOC(c4cnn(C)c4)C3)nc2c(=O)n1C (centres unmarked) [Example 70, 8-(2-chloro-4-fluorophenyl)-2,3-dimethyl-6-(2-(1-methyl-1H-pyrazol-4-yl)morpholino)pyrimido[5,4-d]pyrimidin-4 (3H)-one] | < 75% | > 1000 nM
Cc1nc2c(C3CC4(C3)CC(F)(F)C4)nc(N3CCOC(c4cnn(C)c4)C3)nc2c(=O)n1C (centres unmarked) [Example 72, 8-(6,6-difluorospiro[3.3]heptan-2-yl)-2,3-dimethyl-6-(2-(1-methyl-1H-pyrazol-4-yl)morpholino)pyrimido[5,4-d]pyrimidin-4 (3H)-one] | 75 to 110% | 100 to 1000 nM
Cc1nc2c(-c3ccc(Cl)cc3F)nc(N3CCOC(c4cn(C)nn4)C3)nc2c(=O)n1C (centres unmarked) [Example 73, 8-(4-chloro-2-fluorophenyl)-2,3-dimethyl-6-(2-(1-methyl-1H-1,2,3-triazol-4-yl)morpholino)pyrimido[5,4-d]pyrimidin-4 (3H)-one] | 75 to 110% | 100 to 1000 nM
Cc1nc2c(-c3ccc(Cl)cc3F)nc(N3CCC[C@H](Oc4cnn(C)c4)C3)nc2c(=O)n1C [Example 75, (S)-8-(4-chloro-2-fluorophenyl)-2,3-dimethyl-6-(3-((1-methyl-1H-pyrazol-4-yl)oxy)piperidin-1-yl)pyrimido[5,4-d]pyrimidin-4 (3H)-one] | < 75% | 100 to 1000 nM
Cc1nc2c(-c3ccc(Cl)cc3F)nc(N3CCCC(N4CCOCC4)C3)nc2c(=O)n1C (centres unmarked) [Example 78, 8-(4-chloro-2-fluorophenyl)-2,3-dimethyl-6-(3-morpholinopiperidin-1-yl)pyrimido[5,4-d]pyrimidin-4 (3H)-one] | 75 to 110% | 100 to 1000 nM
COC1CN(C2CCCN(c3nc(-c4ccc(Cl)cc4F)c4nc(C)n(C)c(=O)c4n3)C2)C1 (centres unmarked) [Example 79, 8-(4-chloro-2-fluorophenyl)-6-(3-(3-methoxyazetidin-1-yl)piperidin-1-yl)-2,3-dimethylpyrimido[5,4-d]pyrimidin-4 (3H)-one] | < 75% | > 1000 nM
Cc1nc2c(-c3ccc(Cl)cc3F)nc(N3CCCC(N4CC(F)(F)C4)C3)nc2c(=O)n1C (centres unmarked) [Example 80, 8-(4-chloro-2-fluorophenyl)-6-(3-(3,3-difluoroazetidin-1-yl)piperidin-1-yl)-2,3-dimethylpyrimido[5,4-d]pyrimidin-4 (3H)-one] | < 75% | > 1000 nM
Cc1nc2c(-c3ccc(Cl)cc3F)nc(N3CCOC(c4cn(C)cn4)C3)nc2c(=O)n1C (centres unmarked) [Example 82, 8-(4-chloro-2-fluorophenyl)-2,3-dimethyl-6-(2-(1-methyl-1H-imidazol-4-yl)morpholino)pyrimido[5,4-d]pyrimidin-4(3H)-one] | 75 to 110% | > 1000 nM
Cc1nc2c(-c3ccc(Cl)cc3F)nc(N3CCc4cncnc4CC3)nc2c(=O)n1C [Example 83, 8-(4-chloro-2-fluorophenyl)-2,3-dimethyl-6-(5,6,8,9-tetrahydro-7H-pyrimido[4,5-d]azepin-7-yl)pyrimido[5,4-d]pyrimidin-4(3H)-one] | < 75% | > 1000 nM
Cc1nc2c(-c3ccc(Cl)cc3F)nc(N3CCCc4ccncc4C3)nc2c(=O)n1C [Example 86, 8-(4-chloro-2-fluorophenyl)-2,3-dimethyl-6-(5,6,7,9-tetrahydro-8H-pyrido[3,4-c]azepin-8-yl)pyrimido[5,4-d]pyrimidin-4(3H)-one] | < 75% | > 1000 nM
Cc1nc2c(C3CCNCC3)nc(N3CCOC(c4cnn(C)c4)C3)nc2c(=O)n1C (centres unmarked) [Example 87, 2,3-dimethyl-6-(2-(1-methyl-1H-pyrazol-4-yl)morpholino)-8-(piperidin-4-yl)pyrimido[5,4-d]pyrimidin-4 (3H)-one] | 75 to 110% | > 1000 nM
Cc1nc2c(-c3ccc(Cl)cc3F)nc(N3CCOC(c4cnn(C)n4)C3)nc2c(=O)n1C (centres unmarked) [Example 91, 8-(4-chloro-2-fluorophenyl)-2,3-dimethyl-6-(2-(2-methyl-2H-1,2,3-triazol-4-yl)morpholino)pyrimido[5,4-d]pyrimidin-4 (3H)-one] | 75 to 110% | 1 to 10 nM
Cc1nc2c(-c3cc(C(F)(F)F)nn3C)nc(N3CCOC(c4cnn(C)c4)C3)nc2c(=O)n1C (centres unmarked) [Example 99, 2,3-dimethyl-6-(2-(1-methyl-1H-pyrazol-4-yl)morpholino)-8-(1-methyl-3-(trifluoromethyl)-1H-pyrazol-5-yl)pyrimido[5,4-d]pyrimidin-4 (3H)-one] | < 75% | 100 to 1000 nM
Cc1nc2c(-c3ccc(Cl)cc3F)cc(N3CCOC(c4cnn(C)c4)C3)nc2c(=O)n1C (centres unmarked) [Example 104, 8-(4-chloro-2-fluorophenyl)-2,3-dimethyl-6-(2-(1-methyl-1H-pyrazol-4-yl)morpholino)pyrido[3,2-d]pyrimidin-4 (3H)-one] | 75 to 110% | 100 to 1000 nM
Cc1cc2c(-c3ccc(Cl)cc3F)nc(N3CCOC(c4cnn(C)c4)C3)nc2c(=O)n1C (centres unmarked) [Example 114, 4-(4-chloro-2-fluorophenyl)-6,7-dimethyl-2-(2-(1-methyl-1H-pyrazol-4-yl)morpholino)pyrido[3,4-d]pyrimidin-8 (7H)-one] | 75 to 110% | 1 to 10 nM
Cc1nc2c(-c3ccc(Cl)cc3F)nc(N3CC(c4cnn(C)c4)OC(F)(F)C3)nc2c(=O)n1C (centres unmarked) [Example 115, 8-(4-chloro-2-fluorophenyl)-6-(2,2-difluoro-6-(1-methyl-1H-pyrazol-4-yl)morpholino)-2,3-dimethylpyrimido[5,4-d]pyrimidin-4 (3H)-one] | 75 to 110% | 1 to 10 nM
Cc1nc2c(-c3ccc(Cl)cc3F)nc(N3CC(c4cnn(C)c4)OC4(CC4)C3)c(F)c2c(=O)n1C (centres unmarked) [Example 157, 8-(4-chloro-2-fluorophenyl)-5-fluoro-2,3-dimethyl-6-(5-(1-methyl-1H-pyrazol-4-yl)-4-oxa-7-azaspiro[2.5]octan-7-yl)pyrido[3,4-d]pyrimidin-4 (3H)-one] | < 75% | 100 to 1000 nM

Other lines, results leading:

Emax | EC50 | Compound
< 75% | > 1000 nM | Cc1nc2c(-c3ccc(Cl)cc3F)nc(N3CC[C@H](Oc4cnn(C)c4)C3)nc2c(=O)n1C [Example 74, (S)-8-(4-chloro-2-fluorophenyl)-2,3-dimethyl-6-(3-((1-methyl-1H-pyrazol-4-yl)oxy)pyrrolidin-1-yl)pyrimido[5,4-d]pyrimidin-4 (3H)-one]
75 to 110% | 100 to 1000 nM | Cc1nc2c(-c3ccc(Cl)cc3F)nc(N3CCC[C@@H](Oc4cnn(C)c4)C3)nc2c(=O)n1C [Example 76, (R)-8-(4-chloro-2-fluorophenyl)-2,3-dimethyl-6-(3-((1-methyl-1H-pyrazol-4-yl)oxy)piperidin-1-yl)pyrimido[5,4-d]pyrimidin-4 (3H)-one]
75 to 110% | > 1000 nM | Cc1nc2c(-c3ccc(Cl)cc3F)nc(N3CCC(Oc4cnn(C)c4)CC3)nc2c(=O)n1C [Example 77, 8-(4-chloro-2-fluorophenyl)-2,3-dimethyl-6-(4-((1-methyl-1H-pyrazol-4-yl)oxy)piperidin-1-yl)pyrimido[5,4-d]pyrimidin-4 (3H)-one]
< 75% | > 1000 nM | Cc1nc2c(-c3ccc(Cl)cc3F)nc(N3CCOC(c4ncc[nH]4)C3)nc2c(=O)n1C (centres unmarked) [Example 81, 6-(2-(1H-imidazol-2-yl)morpholino)-8-(4-chloro-2-fluorophenyl)-2,3-dimethylpyrimido[5,4-d]pyrimidin-4(3H)-one]
< 75% | 100 to 1000 nM | Cc1cnccc1OC1CCN(c2nc(-c3ccc(Cl)cc3F)c3nc(C)n(C)c(=O)c3n2)CC1 [Example 84, 8-(4-chloro-2-fluorophenyl)-2,3-dimethyl-6-(4-((3-methylpyridin-4-yl)oxy)piperidin-1-yl)pyrimido[5,4-d]pyrimidin-4(3H)-one]
< 75% | > 1000 nM | Cc1nc2c(-c3ccc(Cl)cc3F)nc(N3CCOC4(CCc5ccccc54)C3)nc2c(=O)n1C (centres unmarked) [Example 85, 8-(4-chloro-2-fluorophenyl)-6-(2,3-dihydrospiro[indene-1,2′-morpholin]-4′-yl)-2,3-dimethylpyrimido[5,4-d]pyrimidin-4(3H)-one]
75 to 110% | 1 to 10 nM | Cc1nc2c(-c3ccc(Cl)cc3F)nc(N3CC(c4cnn(C)c4)OC4(CCC4)C3)nc2c(=O)n1C (centres unmarked) [Example 90, 8-(4-chloro-2-fluorophenyl)-2,3-dimethyl-6-(6-(1-methyl-1H-pyrazol-4-yl)-5-oxa-8-azaspiro(3,5)nonan-8-yl)pyrimido(5,4-d)pyrimidin-4 (3H)-one]
< 75% | 100 to 1000 nM | Cc1nc2c(-c3ccc(Cl)cc3F)cc(N3CCOC(c4cnn(C)c4)C3)cc2c(=O)n1C (centres unmarked) [Example 106, 8-(4-chloro-2-fluorophenyl)-2,3-dimethyl-6-(2-(1-methyl-1H-pyrazol-4-yl)morpholino)quinazolin-4 (3H)-one]
75 to 110% | 1 to 10 nM | Cc1nc2c(C34CC(C(F)(F)F)(C3)C4)nc(N3CCO[C@@H](c4cnn(C)c4)C3)nc2c(=O)n1C [Example 113, (S)-2,3-dimethyl-6-(2-(1-methyl-1H-pyrazol-4-yl)morpholino)-8-(3-(trifluoromethyl)bicyclo[1.1.1]pentan-1-yl)pyrimido[5,4-d]pyrimidin-4 (3H)-one]

From patent US20260200926A1, “TREM2 MODULATORS” (Muna Therapeutics ApS, priority 2022, published 2026)
